Source: patent US20040253267A1 (priority 2003, published 2004)
Where two headings read alike, the source gives them in different places.

Columns and labels:
[1] = test system: breast cancer cell line MA782/5S-B; conditions: 31st day from tumor inoculation, 30 consecutive days treatment; AY/NY 0.3 ml oral once per day, CTX 30 mg/kg/day s.c.
Procedure: (§1) The biological composition comprising 10^8 cells per ml of activated and conditioned yeast cells of the strain Saccharomyces carlsbergensis Hansen strain AS2.441 was prepared by the methods described in Section 5.1 and subsections therein.
(§2) The animals used to generate the breast cancer cells for the experiments were female mice derived from an outbreed line of mouse (obtainable from the Chinese Academy of Military Medical Sciences, Beijing, China), having an average body weight of about 18 to 20 gram. About […] viable tumor cells of the breast cancer cell line MA782/5S-B (obtainable from the Cancer Institute, Chinese Academy of Medical Sciences, Beijing, China) in about 0.2 ml culture suspension were injected subcutaneously into the animals.
The mice injected with tumor cells were immediately divided into 4 experimental groups of ten mice per group and one control group. The four experimental groups were triplicated (i.e., using a total of 120 mice in the experimental groups).
The mice received the biological compositions, untreated yeast cells, CTX or saline on the same day as the tumor cells were transplanted. The mice in group CK2 also started receiving saline on the same day as the other four groups. […] The weight of the mice and the weight of the tumor were determined by standard techniques.

[2] = test system: breast cancer cell line MA782/5S-B; conditions: for Number of live animals remaining in the groups after 30 days of treatment: 30 mice per group
Procedure: as §2
The survival time of mice after tumor injection and treatment was studied.
as §1
The animals were prepared in a similar manner as described in Section 8.1.
The mice injected with tumor cells were immediately divided into 4 experimental groups of ten mice per group and one control group. The four experimental groups were triplicated (i.e., using a total of 120 mice in the experimental groups). In group 2AY, the mice received 0.5 ml of the biological composition once per day. In group 2NY, the mice received 0.5 ml of the untreated yeast cells once per day. In group 2CTX, the mice were injected subcutaneously with 45 mg of cyclophosphamide (CTX) per kg body weight per day. In group 2CK1, the mice received 0.5 ml of physiological saline once per day.
The mice received the biological compositions, untreated yeast cells, CTX or saline on the same day as the tumor cells were transplanted. The mice in group 2CK2 also started receiving saline on the same day as the other four groups. The biological compositions, untreated yeast cells and saline were administered orally by a feeding tube and the CTX by subcutaneous injection for 30 consecutive days. The mice were observed over 6 months from the day of tumor inoculation and survival was recorded. The weight of the mice and the weight of the tumor were determined by standard techniques.

[3] = test system: breast cancer cell line Ca615-B; assay: Survival time in 615 strain mouse model of human breast cancer (Example 7); assay type: in vivo; conditions: for Number of live animals remaining in the groups after 30 days of treatment: 30 mice per group
Procedure: In group 2TSPA, the mice were injected intravenously with 2.5 mg of thiotepa (TSPA) per kg body weight per day.

[4] = test system: breast cancer cell line Ca615-B; assay: Tumor growth in 615 strain mouse model of human breast cancer (Example 6); assay type: in vivo; conditions: 31st day from tumor inoculation, 30 consecutive days treatment; AY/NY 0.3 ml oral once per day, TSPA 1.5 mg/kg/day i.v.
Procedure: In group TSPA, the mice were injected intravenously with 1.5 mg of thiotepa (TSPA) per kg body weight per day.

[5] = mice that survived, observed over 6 months, 2AY/2NY 0.5 ml oral once per day, 2TSPA 2.5 mg/kg/day i.v., 30 days
[6] = mice that survived, observed over 6 months, 2AY/2NY 0.5 ml oral once per day, 2CTX 45 mg/kg/day s.c., 30 days

O=P1(N(CCCl)CCCl)NCCCO1 (stereo not drawn) [CTX, cyclophosphamide]
mean weight of mice and standard deviation [1]: 19.4 ± 2.2 g | mean weight of tumor nodules and standard deviation [1]: 3.1 ± 1.7 g | Number of live animals remaining in the groups after 30 days of treatment ([2]; 0 month after cessation of treatment, 2AY/2NY 0.5 ml oral once per day, 2CTX 45 mg/kg/day s.c.): 30 | Number of live animals remaining in the groups after 30 days of treatment ([2]; 1 month after cessation of treatment, 2AY/2NY 0.5 ml oral once per day, 2CTX 45 mg/kg/day s.c.): 30 | Number of live animals remaining in the groups after 30 days of treatment ([2]; 2 months after cessation of treatment, 2AY/2NY 0.5 ml oral once per day, 2CTX 45 mg/kg/day s.c.): 17 | Number of live animals remaining in the groups after 30 days of treatment ([2]; 3 months after cessation of treatment, 2AY/2NY 0.5 ml oral once per day, 2CTX 45 mg/kg/day s.c.): 0 | Number of live animals remaining in the groups after 30 days of treatment ([2]; 4 months after cessation of treatment, 2AY/2NY 0.5 ml oral once per day, 2CTX 45 mg/kg/day s.c.): 0 | Number of live animals remaining in the groups after 30 days of treatment ([2]; 5 months after cessation of treatment, 2AY/2NY 0.5 ml oral once per day, 2CTX 45 mg/kg/day s.c.): 0 | Number of live animals remaining in the groups after 30 days of treatment ([2]; 6 months after cessation of treatment, 2AY/2NY 0.5 ml oral once per day, 2CTX 45 mg/kg/day s.c.): 0 | survival outcome (in words) ([2]; observed over 6 months, 2NY 0.5 ml per day, 2CTX 45 mg/kg/day): all died during the experiment

S=P(N1CC1)(N1CC1)N1CC1 [TSPA, thiotepa]
Number of live animals remaining in the groups after 30 days of treatment ([3]; 0 month after cessation of treatment, 2AY/2NY 0.5 ml oral once per day, 2TSPA 2.5 mg/kg/day i.v.): 30 | Number of live animals remaining in the groups after 30 days of treatment ([3]; 1 month after cessation of treatment, 2AY/2NY 0.5 ml oral once per day, 2TSPA 2.5 mg/kg/day i.v.): 30 | Number of live animals remaining in the groups after 30 days of treatment ([3]; 2 months after cessation of treatment, 2AY/2NY 0.5 ml oral once per day, 2TSPA 2.5 mg/kg/day i.v.): 23 | Number of live animals remaining in the groups after 30 days of treatment ([3]; 3 months after cessation of treatment, 2AY/2NY 0.5 ml oral once per day, 2TSPA 2.5 mg/kg/day i.v.): 11 | Number of live animals remaining in the groups after 30 days of treatment ([3]; 4 months after cessation of treatment, 2AY/2NY 0.5 ml oral once per day, 2TSPA 2.5 mg/kg/day i.v.): 4 | Number of live animals remaining in the groups after 30 days of treatment ([3]; 5 months after cessation of treatment, 2AY/2NY 0.5 ml oral once per day, 2TSPA 2.5 mg/kg/day i.v.): 0 | Number of live animals remaining in the groups after 30 days of treatment ([3]; 6 months after cessation of treatment, 2AY/2NY 0.5 ml oral once per day, 2TSPA 2.5 mg/kg/day i.v.): 0 | mean weight of mice and standard deviation [3, 5]: all animals dead | mean weight of tumor nodules and standard deviation [3, 5]: all animals dead | survival outcome (in words) ([3]; observed over 6 months, 2AY/2NY 0.5 ml per day, 2TSPA 2.5 mg/kg/day): all died during the experiment | mean weight of mice and standard deviation [4]: 20 ± 2.4 g | mean weight of tumor nodules and standard deviation [4]: 3.1 ± 1.6 mg | mean weight of mice and standard deviation [2, 6]: all animals dead | mean weight of tumor nodules and standard deviation [2, 6]: all animals dead
